Source: patent US11299501B2 (BRISTOL-MYERS SQUIBB COMPANY, priority 2017, dated 2022)

Columns and labels:
Type in all cases: cell-based
human TLR9 = target: T1, human TLR9 (Homo sapiens, UniProt Q9NR96); test: TLR9 inhibition reporter assay (HEK-Blue SEAP); details: cells overexpressing human TLR9, SEAP reporter, stimulated with ODN2006 5 nM, 22 hour incubation
T1 construct: host or cells: HEK-Blue cells
T1 sequence (Q9NR96 26-1032): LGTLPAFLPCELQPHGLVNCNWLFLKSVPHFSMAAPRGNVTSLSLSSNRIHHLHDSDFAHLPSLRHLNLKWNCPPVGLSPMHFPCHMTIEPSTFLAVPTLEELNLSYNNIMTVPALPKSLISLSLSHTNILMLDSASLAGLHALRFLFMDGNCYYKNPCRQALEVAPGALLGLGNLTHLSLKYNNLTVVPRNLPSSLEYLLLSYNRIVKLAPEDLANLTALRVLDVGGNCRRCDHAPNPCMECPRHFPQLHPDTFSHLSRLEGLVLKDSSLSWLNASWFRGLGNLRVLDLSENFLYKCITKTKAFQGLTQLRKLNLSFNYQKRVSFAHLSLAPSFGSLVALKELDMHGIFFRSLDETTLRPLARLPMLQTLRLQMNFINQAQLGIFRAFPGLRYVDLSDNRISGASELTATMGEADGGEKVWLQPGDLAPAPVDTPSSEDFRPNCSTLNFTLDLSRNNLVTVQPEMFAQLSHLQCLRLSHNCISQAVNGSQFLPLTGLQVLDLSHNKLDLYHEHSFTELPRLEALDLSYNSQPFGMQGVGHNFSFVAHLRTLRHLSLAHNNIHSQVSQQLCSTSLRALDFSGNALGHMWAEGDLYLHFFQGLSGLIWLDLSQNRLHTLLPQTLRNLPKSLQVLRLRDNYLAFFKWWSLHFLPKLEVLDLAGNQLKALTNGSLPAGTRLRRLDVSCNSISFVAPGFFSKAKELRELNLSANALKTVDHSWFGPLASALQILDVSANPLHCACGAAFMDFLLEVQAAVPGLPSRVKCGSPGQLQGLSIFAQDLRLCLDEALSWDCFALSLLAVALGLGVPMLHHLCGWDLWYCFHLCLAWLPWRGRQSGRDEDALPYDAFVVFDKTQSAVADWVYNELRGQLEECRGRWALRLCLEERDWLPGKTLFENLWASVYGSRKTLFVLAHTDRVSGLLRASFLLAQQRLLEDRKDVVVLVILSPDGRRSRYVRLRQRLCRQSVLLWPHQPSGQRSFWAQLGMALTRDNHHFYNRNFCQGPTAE
Procedure: (§1) TLR7/8/9 Inhibition Reporter Assays
(§2) […] (Invivogen) overexpressing human TLR7, TLR8 or TLR9 receptors were used for screening inhibitors of these receptors using an inducible SEAP (secreted embryonic alkaline phosphatase) reporter gene under the control of the IFN-β minimal promoter fused to five NF-κB and AP-1-binding sites. Briefly, cells are seeded into Greiner 384 well plates (15000 cells per well for TLR7, 20,000 for TLR8 and 25,000 for TLR9) and then treated with test compounds in DMSO to yield a final dose response concentration range of 0.05 nM-50 μM. After a 30 minute compound pre-treatment at room temperature, the cells are then stimulated with a TLR7 ligand (gardiquimod at a final concentration of 7.5 μM). TLR8 ligand (R848 at a final concentration of 15.9 μM) or TLR9 ligand (ODN2006 at a final concentration of 5 nM) to activate NF-κB and AP-1 which induce the production of SEAP. After a 22 hour incubation at 37° C., 5% CO2, SEAP levels are determined with the addition of HEK-Blue™ Detection reagent (Invivogen), a cell culture medium that allows for detection of SEAP, according to manufacturer's specifications. The percent inhibition is determined as the % reduction in the HEK-Blue signal present in wells treated with agonist plus DMSO alone compared to wells treated with a known inhibitor.

human TLR8 = target: T2, human TLR8 (Homo sapiens, UniProt Q9NR97); test: TLR8 inhibition reporter assay (HEK-Blue SEAP); details: cells overexpressing human TLR8, SEAP reporter, stimulated with R848 15.9 μM, 22 hour incubation
T2 construct: host or cells: HEK-Blue cells
T2 sequence (Q9NR97 27-1041): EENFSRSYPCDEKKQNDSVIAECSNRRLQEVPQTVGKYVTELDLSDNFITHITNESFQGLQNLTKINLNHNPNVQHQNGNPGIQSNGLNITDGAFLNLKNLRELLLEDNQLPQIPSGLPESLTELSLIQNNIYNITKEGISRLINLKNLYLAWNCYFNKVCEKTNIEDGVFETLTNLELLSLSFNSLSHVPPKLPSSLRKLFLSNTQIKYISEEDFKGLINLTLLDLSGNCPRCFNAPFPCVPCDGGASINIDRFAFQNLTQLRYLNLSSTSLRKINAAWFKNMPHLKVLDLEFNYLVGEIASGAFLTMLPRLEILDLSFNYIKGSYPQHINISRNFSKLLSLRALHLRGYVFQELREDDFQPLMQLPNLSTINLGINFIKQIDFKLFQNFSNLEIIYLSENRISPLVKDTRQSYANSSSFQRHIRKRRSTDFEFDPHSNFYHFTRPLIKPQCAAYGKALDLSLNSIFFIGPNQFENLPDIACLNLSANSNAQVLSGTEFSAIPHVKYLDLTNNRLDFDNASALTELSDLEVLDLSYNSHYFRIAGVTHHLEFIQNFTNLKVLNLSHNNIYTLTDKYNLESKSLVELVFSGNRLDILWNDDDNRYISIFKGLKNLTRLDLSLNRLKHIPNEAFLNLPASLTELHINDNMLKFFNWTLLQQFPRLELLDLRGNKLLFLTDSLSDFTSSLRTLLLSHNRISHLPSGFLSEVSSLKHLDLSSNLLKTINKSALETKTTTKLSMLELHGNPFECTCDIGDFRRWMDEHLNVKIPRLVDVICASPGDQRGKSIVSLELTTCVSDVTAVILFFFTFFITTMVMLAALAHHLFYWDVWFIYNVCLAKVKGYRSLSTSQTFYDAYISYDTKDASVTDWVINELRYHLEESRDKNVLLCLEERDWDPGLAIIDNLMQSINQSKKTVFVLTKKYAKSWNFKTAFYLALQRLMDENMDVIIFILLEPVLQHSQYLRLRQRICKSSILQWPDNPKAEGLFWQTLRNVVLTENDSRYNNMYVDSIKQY
Procedure: as §1, §2

human TLR7 = target: T3, human TLR7 (Homo sapiens, UniProt Q9NYK1); test: TLR7 inhibition reporter assay (HEK-Blue SEAP); details: cells overexpressing human TLR7, SEAP reporter, stimulated with gardiquimod 7.5 μM, 22 hour incubation
T3 construct: host or cells: HEK-Blue cells
T3 sequence (Q9NYK1 27-1049): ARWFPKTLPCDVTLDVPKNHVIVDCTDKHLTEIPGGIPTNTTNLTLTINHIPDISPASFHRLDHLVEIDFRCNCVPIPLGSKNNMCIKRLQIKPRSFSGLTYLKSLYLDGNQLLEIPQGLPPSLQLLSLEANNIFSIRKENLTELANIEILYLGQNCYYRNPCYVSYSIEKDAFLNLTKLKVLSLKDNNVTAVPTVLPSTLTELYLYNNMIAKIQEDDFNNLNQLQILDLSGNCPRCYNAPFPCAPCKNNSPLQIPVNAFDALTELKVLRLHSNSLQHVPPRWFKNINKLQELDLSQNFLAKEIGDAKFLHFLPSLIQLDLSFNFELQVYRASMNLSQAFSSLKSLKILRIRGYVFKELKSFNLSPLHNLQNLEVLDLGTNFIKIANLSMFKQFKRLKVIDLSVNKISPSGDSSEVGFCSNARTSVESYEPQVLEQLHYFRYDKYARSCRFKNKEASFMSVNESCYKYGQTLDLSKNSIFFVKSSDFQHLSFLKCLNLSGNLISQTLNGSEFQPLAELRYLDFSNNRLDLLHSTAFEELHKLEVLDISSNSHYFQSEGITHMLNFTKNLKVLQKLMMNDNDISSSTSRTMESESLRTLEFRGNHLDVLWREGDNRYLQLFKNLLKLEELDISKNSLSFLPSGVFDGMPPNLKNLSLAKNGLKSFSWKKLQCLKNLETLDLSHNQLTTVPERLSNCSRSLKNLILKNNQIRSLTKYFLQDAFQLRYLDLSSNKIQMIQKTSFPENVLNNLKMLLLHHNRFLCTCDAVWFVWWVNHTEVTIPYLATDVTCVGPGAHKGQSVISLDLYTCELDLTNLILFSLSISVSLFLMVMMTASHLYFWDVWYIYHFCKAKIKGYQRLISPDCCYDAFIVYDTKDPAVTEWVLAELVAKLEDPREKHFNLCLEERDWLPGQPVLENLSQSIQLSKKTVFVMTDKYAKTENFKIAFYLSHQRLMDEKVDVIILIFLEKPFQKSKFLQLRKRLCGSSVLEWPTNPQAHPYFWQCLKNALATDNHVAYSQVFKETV
Procedure: as §1, §2

Q: How did the IC50 (human TLR9) turn out when `CCc1c(-c2ccc(OC)c(OC)c2)[nH]c2cnc(C3CCN(C4CCN(C(C)C)CC4)CC3)nc12` [Example 26, 6-(3,4-dimethoxyphenyl)-7-ethyl-2-(1′-isopropyl-[1,4′-bipiperidin]-4-yl)-5H-pyrrolo[3,2-d]pyrimidine] was run?
A: 100 to 1000 nM

Q: And the IC50 (human TLR8)?
A: < 100 nM

Q: What about the IC50 (human TLR7) of the same compound?
A: < 100 nM

Q: Which results are given for `Cc1c(-c2[nH]c3cnc(C4CCN(CC(C)(C)O)CC4)nc3c2C(C)C)cn2ncnc2c1C` [Example 27, 1-(4-(6-(7,8-dimethyl-[1,2,4]triazolo[1,5-a]pyridin-6-yl)-7-isopropyl-5H-pyrrolo[3,2-d]pyrimidin-2-yl)piperidin-1-yl)-2-methylpropan-2-ol]?
A: IC50 (human TLR9): 1000 to 50000 nM; IC50 (human TLR8): < 100 nM; IC50 (human TLR7): < 100 nM

Q: How did the IC50 (human TLR9) turn out when `Cc1c(-c2[nH]c3cnc(C4CCN(C(=O)CN(C)C)CC4)nc3c2C(C)C)cn2ncnc2c1C` [Example 28, 1-(4-(6-(7,8-dimethyl-[1,2,4]triazolo[1,5-a]pyridin-6-yl)-7-isopropyl-5H-pyrrolo[3,2-d]pyrimidin-2-yl)piperidin-1-yl)-2-(dimethylamino)ethan-1-one] was run?
A: 1000 to 50000 nM

Q: What about the IC50 (human TLR8) of the same compound?
A: < 100 nM

Q: And the IC50 (human TLR7)?
A: < 100 nM

Q: Which IC50 (human TLR9) does the source give for `Cc1cc(-c2[nH]c3cnc(C4CCN(CC(=O)N(C)C)CC4)nc3c2C(C)C)cn2ncnc12` [Example 29, 2-(4-(7-isopropyl-6-(8-methyl-[1,2,4]triazolo[1,5-a]pyridin-6-yl)-5H-pyrrolo[3,2-d]pyrimidin-2-yl)piperidin-1-yl)-N,N-dimethylacetantide] here?
A: 1000 to 50000 nM

Q: And the IC50 (human TLR8)?
A: < 100 nM

Q: And the IC50 (human TLR7)?
A: < 100 nM

Q: For `CNC(=O)CN1CCC(c2ncc3[nH]c(-c4cc(C)c5ncnn5c4)c(C(C)C)c3n2)CC1` [Example 30, 2-(4-(7-isopropyl-6-(8-methyl-[1,2,4]triazolo[1,5-a]pyridin-6-yl)-5H-pyrrolo[3,2-d]pyrimidin-2-yl)piperidin-1-yl)-N-tnethylacetamide], which IC50 (human TLR9) is on record?
A: > 50000 nM

Q: What about the IC50 (human TLR8) of the same compound?
A: < 100 nM

Q: What about the IC50 (human TLR7) of the same compound?
A: < 100 nM

Q: Which results are given for `COc1cc(-c2[nH]c3cnc(C4CCN(CC(=O)N(C)C)CC4)nc3c2C(C)C)cn2ncnc12` [Example 31, 2-(4-(7-isopropyl-6-(8-methoxy-[1,2,4]triazolo[1,5-a]pyridin-6-yl)-5H-pyrrolo[3,2-d]pyrimidin-2-yl)piperidin-1-yl)-N,N-dimethylacetamide]?
A: IC50 (human TLR9): 1000 to 50000 nM; IC50 (human TLR8): < 100 nM; IC50 (human TLR7): < 100 nM

Q: Which results are given for `Cc1cc(-c2[nH]c3cnc(C4CCN(CC(=O)N(C)C)CC4)nc3c2C(C)C)cn(C)c1=O` [Example 32, 2-(4-(6-(1,5-dimethyl-6-oxo-1,6-dihydropyridin-3-yl)-7-isopropyl-5H-pyrrolo[3,2-d]pyrimidin-2-yl)piperidin-1-yl)-N,N-dimethylacetainide]?
A: IC50 (human TLR9): 1000 to 50000 nM; IC50 (human TLR8): < 100 nM; IC50 (human TLR7): < 100 nM

Q: How did the IC50 (human TLR9) turn out when `Cc1cc(-c2[nH]c3cnc(C4CCN(C(=O)CN(C)C)CC4)nc3c2C(C)C)cn(C)c1=O` [Example 33, 5-(2-(1-(dimethylglycyl)piperidin-4-yl)-7-isopropyl-5H-pyrrolo[3,2-d]pyrimidin-6-yl)-1,3-dimethylpyridin-2(1H)-one] was run?
A: 1000 to 50000 nM

Q: What about the IC50 (human TLR8) of the same compound?
A: 100 to 1000 nM

Q: What about the IC50 (human TLR7) of the same compound?
A: < 100 nM

Q: For `Cc1cc(-c2[nH]c3cnc(C4CCN(C)CC4)nc3c2C(C)C)cn(C)c1=O` [Example 34, 5-(7-isopropyl-2-(1-methylpiperidin-4-yl)-5H-pyrrolo[3,2-d]pyrimidin-6-yl)-1,3-dimethylpyridin-2(1H)-one], which IC50 (human TLR9) is on record?
A: 1000 to 50000 nM

Q: And the IC50 (human TLR8)?
A: < 100 nM

Q: And the IC50 (human TLR7)?
A: < 100 nM

Q: How did the IC50 (human TLR9) turn out when `CNC(=O)CN1CCC(c2ncc3[nH]c(-c4cc(OC)c5ncnn5c4)c(C(C)C)c3n2)CC1` [Example 35, 2-(4-(7-isopropyl-6-(8-methoxy-[1,2,4]triazolo[1,5-a]pyridin-6-yl)-5H-pyrrolo[3,2-d]pyritnidin-2-yl)piperidin-1-yl)-N-methylacetamide] was run?
A: > 50000 nM

Q: What about the IC50 (human TLR8) of the same compound?
A: < 100 nM

Q: And the IC50 (human TLR7)?
A: < 100 nM

Q: `CCc1c(-c2ccc(OC)c(OC)c2)[nH]c2cnc(-c3nnc(C[C@H]4CCCCN4)o3)nc12` [Example 36, (R)-2-(6-(3,4-dimethoxyphenyl)-7-ethyl-5H-pyrrolo[3,2-d]pyrhnidin-2-yl)-5-(piperidin-2-ylmethyl)-1,3,4-oxadiazole] was tested. Which IC50 (human TLR9) did it give?
A: 1000 to 50000 nM

Q: What about the IC50 (human TLR8) of the same compound?
A: 100 to 1000 nM

Q: What about the IC50 (human TLR7) of the same compound?
A: 1000 to 50000 nM
